{"source": "patent US20140249097A1", "about": "“Inhibition of HIF-1 activation for Anti-Tumor and Anti-Inflammatory responses” (priority 2010, published 2014)", "key": {"nitric oxide": {"test_system": "nitric oxide", "assay": "Flow cytometry of intracellular nitric oxide (DAF-FM) in 4T1ODD-luc cells", "format": "cell-based, mouse", "settings": "10 μg/ml 1400W or 15 μM EGCG with 1 μg/ml doxorubicin, 48 hours", "description": "To detect intracellular nitric oxide levels, 1×10^6 4 T1ODD-luc cells were plated per 10-cm cell culture dish with 8 ml of cell culture medium. Doxorubicin (1 μg/ml and 5 μg/ml) or an equal volume of control solvent was added into the cell culture medium the next day and treatment continued for 48 hours. […] Equal amounts of solvent were added for the control group. To quantify intracellular nitric oxide, a single cell suspension was made after trypsinization. 2 ml of 5 uM nitric oxide-specific probe DAF-FM diacetate (4-amino-5-methylamino-2′,7′-difluorofluorescein diacetate) (Invitrogen) were incubated with each cell sample at room temperature in darkness for 30 minutes. The cells were washed with PBS and centrifuged to remove the excess DAF-FM diacetate probe. The cells were resuspended into 500 ul of phenol-free DMEM and incubated for another 20 minutes for complete intracellular deacetylation of the probe. The mean fluorescence intensity of the deacetylated DAF-FM reacted with nitric oxide was quantified by FACSCalibur flow cytometer in FITC channel (Becton Dickinson, Franklin Lakes, N.J., United States of America)."}, "iNOS": {"test_system": "iNOS", "assay": "Western blotting of iNOS in 4T1ODD-luc cells", "format": "cell-based, mouse", "settings": "for inhibition of iNOS expression in doxorubicin-treated cells / doxorubicin-induced iNOS upregulation: with doxorubicin; for inhibition of iNOS expression in doxorubicin-treated cells: 24 h; for doxorubicin-induced iNOS upregulation: 48 h; for basal level of iNOS expression: without doxorubicin, 24 h and 48 h, 10 μg/ml 1400W or 15 μM EGCG", "description": "(§1) Cell nuclear proteins were extracted using the NucBuster protein extraction kit (Novagen, Gibbstown, N.J., United States of America). Total cell lysates or cell nuclear extractions were quantified using a protein assay reagent (Bio-Rad). Equal amounts of protein sample were separated by Bis-HCl gel (Bio-Rad) and transferred to a […] Immun-Blot PVDF membrane (Bio-Rad)."}, "STAT1": {"test_system": "STAT1", "assay": "Western blotting of STAT1 and phospho-STAT1 in 4T1ODD-luc cells", "format": "cell-based, mouse", "settings": "48 hours post-treatment", "description": "as §1"}, "4T1ODD-luc cells": {"test_system": "4T1ODD-luc cells", "assay": "Cell Titer-Glo cell viability assay", "settings": "10 μg/ml 1400W or 15 μM EGCG with 1 μg/ml doxorubicin, to day 3", "text": "Cell viability was quantified by Cell Titer-Glo luminescent cell viability assay (Promega, Madison, Wis., United States of America) daily until day 3. The daily cell viability was normalized to the initial cell viability on day 0 within each group."}, "HIF-1α [1]": {"test_system": "HIF-1α", "format": "cell-based, murine"}, "C533S-ODD-luc": {"test_system": "C533S-ODD-luc", "assay": "C533S-ODD-luc reporter in 4T1 cells in vitro", "format": "cell-based, murine"}, "HIF-1α [2]": {"test_system": "HIF-1α", "assay": "Western blotting of HIF-1α in 4T1ODD-luc cells", "format": "cell-based, mouse", "settings": "4T1ODD-luc cells, post-treatment day 2", "description": "as §1"}, "HIF-1α [3]": {"test_system": "HIF-1α", "assay": "Western blotting of HIF-1α in MCF-7 cells", "format": "cell-based, human", "settings": "MCF-7 cells, post-treatment day 3", "description": "as §1"}, "[4]": {"test_system": "4T1 (murine mammary adenocarcinoma)", "assay": "Tumor growth delay, radiotherapy plus L-NAME, 4T1", "format": "in vivo, mice", "settings": "4T1 tumors, 3×6 Gy, L-NAME in drinking water", "text": "(§2) Female NIH Swiss nude mice, C57BL/6 mice were purchased from the National Cancer Institute (NCI; Fredrick, Md., United States of America). Mice with a genetic disruption of the inducible […] gene (C57BL/6 iNOS^−/−) were obtained from the Jackson Laboratory (Bar Harbor, Me., United States of America). Female BALB/c mice were obtained from Charles River Laboratories (Raleigh, N.C., United States of America). Animals were maintained and cared for in accordance with the Duke University Institutional Animal Care and Use Committee guidelines. For tumor implantation, 4T1 tumors were grown in nude mice or in syngeneic BALB/c mice, and B16F10 melanoma in syngeneic C57BL/6 or iNOS^−/− mice. About 5×10^5 wild type- or luciferase reporter gene-transfected tumor cells were injected subcutaneously (s.c.) into mice in 50 μl of PBS solution in the hind legs of ketamine/xylazine-anesthetized mice. When the tumors reached 6-8 mm in diameter, mice were randomly assigned to experimental groups. To image the luciferase activity, single dose of 6 Gy X-ray was given to the tumor on the right leg and this day was set as day 0. The luciferase activity was imaged everyday or every other day for ten days. For the tumor growth delay assay, radiotherapy was employed in its clinical mode: tumors were treated with 3 fractions of 6 Gy every other day from day 0."}, "B16F10 (murine melanoma)": {"test_system": "B16F10 (murine melanoma)", "assay": "Tumor growth delay, radiotherapy plus L-NAME, B16F10", "format": "in vivo, mice", "settings": "B16F10 tumors, 3×6 Gy, L-NAME in drinking water", "text": "as §2"}, "tumor vasculature": {"test_system": "tumor vasculature", "assay": "CD31 staining of tumor vasculature", "format": "in vivo, mice", "settings": "L-NAME in conjunction with radiotherapy, tumors excised day 10, 4T1 and B16F10", "description": "Vessel staining was performed on tumor cryoslices by using the VECTASTAIN® ABC and the NOVARED™ kits from Vector Laboratories (Burlingame, Calif., United States of America), according to the manufacturer's protocol. The primary anti-CD31 antibody (Santa Cruz Biotechnology, Santa Cruz, Calif.) was labeled with a secondary biotinylated anti-rabbit antibody (Jackson ImmunoResearch Labs, Inc.). Slices were counterstained using Harris' hematoxilin. Vascular density was determined by counting CD31-positive structures in 5 random fields per tumor."}}, "note": "Where two headings read alike, the source gives them in different places. Peptide text beside a SMILES is read from it. * marks the point of attachment. Cbz = O=C(OCc1ccccc1)*", "data": [{"compound": "CC(=N)NCc1cccc(CN)c1", "note": "[1400W, N-(3-(aminomethyl)benzyl)acetamidine]", "values": [{"measurement": "doxorubicin-induced increase of intracellular NO", "setting": "nitric oxide", "value": "significantly suppressed the doxorubicin-induced increase of intracellular NO"}, {"measurement": "inhibition of iNOS expression in doxorubicin-treated cells", "setting": "iNOS", "value": "not obvious"}, {"measurement": "doxorubicin-induced iNOS upregulation", "setting": "iNOS", "value": "successfully suppressed the doxorubicin-induced iNOS upregulation"}, {"measurement": "basal level of iNOS expression", "setting": "iNOS", "value": "suppressed the basal level of iNOS expression"}, {"measurement": "doxorubicin-induced upregulation of STAT1 expression and activation", "setting": "STAT1", "value": "potently suppressed the doxorubicin-induced upregulation of STAT1 expression and activation"}, {"measurement": "effect of combination on cytotoxicity of doxorubicin (cell viability)", "setting": "4T1ODD-luc cells", "value": "did not attenuate the cytotoxicity of doxorubicin"}]}, {"compound": "[Cl-].[Cl-].[Co+2]", "note": "[CoCl2]", "values": [{"measurement": "luminescence arising from ODD-luc reporter gene expression", "setting": "HIF-1α [1]", "value": "rose significantly"}, {"measurement": "C533S-ODD-luc induction", "setting": "C533S-ODD-luc", "value": "significant inductions, similar to wild-type"}]}, {"compound": "O=C(O[C@@H]1Cc2c(O)cc(O)cc2O[C@@H]1c1cc(O)c(O)c(O)c1)c1cc(O)c(O)c(O)c1", "note": "[EGCG, epigallocatechin gallate]", "values": [{"measurement": "doxorubicin-induced normoxic HIF-1α accumulation", "setting": "HIF-1α [2]", "value": "successfully suppressed the doxorubicin-induced normoxic HIF-1α accumulation"}, {"measurement": "doxorubicin-induced normoxic HIF-1α accumulation", "setting": "HIF-1α [3]", "value": "successfully suppressed the doxorubicin-induced normoxic HIF-1α accumulation"}, {"measurement": "doxorubicin-induced increase of intracellular NO", "setting": "nitric oxide", "value": "significantly suppressed the doxorubicin-induced increase of intracellular NO"}, {"measurement": "inhibition of iNOS expression in doxorubicin-treated cells", "setting": "iNOS", "value": "not obvious"}, {"measurement": "doxorubicin-induced iNOS upregulation", "setting": "iNOS", "value": "successfully suppressed the doxorubicin-induced iNOS upregulation"}, {"measurement": "basal level of iNOS expression", "setting": "iNOS", "value": "suppressed the basal level of iNOS expression"}, {"measurement": "doxorubicin-induced upregulation of STAT1 expression and activation", "setting": "STAT1", "value": "potently suppressed the doxorubicin-induced upregulation of STAT1 expression and activation"}, {"measurement": "effect of combination on cytotoxicity of doxorubicin (cell viability)", "setting": "4T1ODD-luc cells", "value": "did not attenuate the cytotoxicity of doxorubicin"}]}, {"compound": "N[C@@H](CCC(=O)N[C@@H](CSN=O)C(=O)NCC(=O)O)C(=O)O", "note": "[GSNO, S-nitrosoglutathione]", "values": [{"measurement": "C533S-ODD-luc expression induced by GSNO", "setting": "C533S-ODD-luc; 4T1 cells, GSNO 1 mM", "value": "almost absent"}]}, {"compound": "COC(=O)[C@@H](N)CCCNC(=N)N[N+](=O)[O-]", "note": "[L-NAME, Nω-nitro-L-arginine methyl ester]", "values": [{"measurement": "tumor growth delay, therapeutic efficacy of radiotherapy with L-NAME", "setting": "[4]", "value": "significantly enhanced the therapeutic efficacy of radiotherapy"}, {"measurement": "tumor growth delay, therapeutic efficacy of radiotherapy with L-NAME", "setting": "B16F10 (murine melanoma)", "value": "significantly enhanced the therapeutic efficacy of radiotherapy"}, {"measurement": "tumor vasculature (CD31+ vascular density)", "setting": "tumor vasculature", "value": "significantly reduced tumor vasculature"}]}, {"compound": "CC(C)C[C@@H](C=O)NC(=O)[C@H](CC(C)C)NC(=O)[C@H](CC(C)C)NC(=O)OCc1ccccc1", "note": "[MG132] (Cbz-Leu-Leu-Leu-aldehyde)", "values": [{"measurement": "luminescence arising from ODD-luc reporter gene expression", "setting": "HIF-1α [1]; 4T1 cells, CoCl2 240 μM for 12 hrs, MG132 10 μM for 12 hrs, vs background", "value": "rose significantly"}]}, {"compound": "CC1(C)N([O])C(c2ccc(C(=O)[O-])cc2)=[N+]([O-])C1(C)C.[K+]", "note": "[carboxy-PTIO, potassium 2-(4-carboxyphenyl)-4,4,5,5-tetramethylimidazoline-1-oxyl-3-oxide]", "values": [{"measurement": "effect on HIF-1α activation (ODD-luc) by GSNO", "setting": "HIF-1α [1]", "value": "effectively suppressed HIF-1α activation by GSNO"}]}]}
